In PubChem BioAssay (NCI):
Several values for one entry are separate records, joined by “and”; a condition that tells them apart may be missing. Equal entries are not always repeated.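 Values below derive from 48-hour exposures of cells grown in 96-well plates, with endpoints linearly interpolated between the two concentrations bracketing the appropriate inhibition level. At the GI50, growth is halved. TGI: concentration producing complete growth inhibition.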

Legend:
Assay in all cases: NCI anticancer screen, dose series, 48 h
NCI/ADR-RES ovarian = tested on: NCI/ADR-RES ovarian
MCF7 breast = tested on: MCF7 breast
BT-549 breast = tested on: BT-549 breast
HS 578T breast = tested on: HS 578T breast
DLD-1 colon = tested on: DLD-1 colon
DMS 114 small cell lung = tested on: DMS 114 small cell lung
DMS 273 small cell lung = tested on: DMS 273 small cell lung
M19-MEL melanoma = tested on: M19-MEL melanoma
LXFL 529 NSCLC = tested on: LXFL 529 NSCLC
HOP-18 NSCLC = tested on: HOP-18 NSCLC

CNC(=O)c1cc(Oc2ccc3nc(NC(=O)Nc4ccc(CN5CCOCC5)c(C(F)(F)F)c4)sc3c2)ccn1
GI50 (NCI/ADR-RES ovarian): 2.07 µM | TGI (NCI/ADR-RES ovarian): 5.37 µM | GI50 (MCF7 breast): 1.75 µM | TGI (MCF7 breast): 4.63 µM | GI50 (BT-549 breast): 3.02 µM | TGI (BT-549 breast): 9.18 µM | GI50 (HS 578T breast): 2.55 µM | TGI (HS 578T breast): 9.6 µM

COc1ccc(-c2nn(-c3cccc(Cl)c3)cc2/C=C2\NC(=S)N(c3ccc(Cl)cc3)C2=O)cc1
GI50 (NCI/ADR-RES ovarian): 5.51 µM | TGI (NCI/ADR-RES ovarian): 14.5 µM | GI50 (MCF7 breast): 5.6 µM | TGI (MCF7 breast): > 25 µM | GI50 (BT-549 breast): 4.46 µM | TGI (BT-549 breast): 11.6 µM | GI50 (HS 578T breast): 4.14 µM | TGI (HS 578T breast): 24.1 µM

C[C@@H](O)[C@@H](C)Oc1nc(Nc2ccc(S(=N)(=O)C3CC3)cc2)ncc1C(F)(F)F (stereo not given in full)
GI50 (NCI/ADR-RES ovarian): 0.132 µM | TGI (NCI/ADR-RES ovarian): 28.5 µM | GI50 (MCF7 breast): 0.0169 µM | TGI (MCF7 breast): 29.7 µM | GI50 (BT-549 breast): 0.0274 µM | TGI (BT-549 breast): 0.182 µM | GI50 (HS 578T breast): 0.0313 µM | TGI (HS 578T breast): 7.96 µM

N#C/C(=C\c1ccc(O)c(O)c1)C(=O)NCc1ccc(C(F)(F)F)cc1
GI50 (NCI/ADR-RES ovarian): 5.19 µM | TGI (NCI/ADR-RES ovarian): 24.7 µM | GI50 (MCF7 breast): 21.3 µM | TGI (MCF7 breast): > 69 µM | GI50 (BT-549 breast): 10.6 µM | TGI (BT-549 breast): > 53.7 µM | GI50 (HS 578T breast): 12.6 µM | TGI (HS 578T breast): 46.9 µM

Cc1cc2c(cc1Cl)SC(N(c1ccccc1Cl)S(=O)(=O)c1ccc(Br)s1)=NS2(=O)=O
GI50 (NCI/ADR-RES ovarian): 17.2 µM | TGI (NCI/ADR-RES ovarian): 41.3 µM | GI50 (MCF7 breast): 8.88 µM | TGI (MCF7 breast): 28.8 µM | GI50 (HS 578T breast): 18 µM | TGI (HS 578T breast): 41.4 µM

COC(=O)c1cc(-c2ccc3ccccc3c2)[nH]c(=O)c1C#N
TGI (NCI/ADR-RES ovarian): > 100 µM | TGI (MCF7 breast): > 100 µM | TGI (BT-549 breast): > 100 µM | TGI (HS 578T breast): > 100 µM

COc1cc2c(Oc3ccc(NC(=O)C4(C(=O)Nc5ccc(F)cc5)CC4)cc3F)ccnc2cc1OCCCN1CCOCC1
GI50 (NCI/ADR-RES ovarian): 1.98 µM | TGI (NCI/ADR-RES ovarian): > 10 µM | GI50 (MCF7 breast): 0.515 µM and 0.546 µM | TGI (MCF7 breast): 2.03 µM and 3 µM | GI50 (BT-549 breast): 1.82 µM and 2.78 µM | TGI (BT-549 breast): 3.93 µM and > 9.51 µM | GI50 (HS 578T breast): 2.06 µM and 0.387 µM

O=C(O)C1C2C=CC(O2)C1C(=O)NCc1cccnc1 (stereo not given)
TGI (NCI/ADR-RES ovarian): > 100 µM | TGI (MCF7 breast): > 100 µM | TGI (BT-549 breast): > 100 µM | TGI (HS 578T breast): > 100 µM

Cc1nnc(C[C@@H]2C=C(c3ccc(Cl)cc3)c3ccccc3-n3c(C)nnc32)o1
GI50 (NCI/ADR-RES ovarian): 1.86 µM | TGI (NCI/ADR-RES ovarian): 43.7 µM | GI50 (MCF7 breast): 0.221 µM | TGI (MCF7 breast): > 100 µM | GI50 (BT-549 breast): 1.48 µM | TGI (BT-549 breast): 29.2 µM | GI50 (HS 578T breast): 0.578 µM | TGI (HS 578T breast): 46.1 µM

CC(C)C[C@H](CC(=O)O)C(=O)N[C@@H](Cc1c[nH]c2ccccc12)C(=O)N[C@@H](C)c1ccccc1
GI50 (NCI/ADR-RES ovarian): > 25 µM | TGI (NCI/ADR-RES ovarian): > 25 µM | GI50 (MCF7 breast): > 25 µM | TGI (MCF7 breast): > 25 µM | GI50 (BT-549 breast): > 25 µM | TGI (BT-549 breast): > 25 µM | GI50 (HS 578T breast): > 25 µM | TGI (HS 578T breast): > 25 µM

CC/C=C\C[C@H]1C/C=C2/C(=O)C=C[C@H]2C/C=C\CCCC(=O)O1
GI50 (NCI/ADR-RES ovarian): 1.47 µM | TGI (NCI/ADR-RES ovarian): > 50 µM | GI50 (MCF7 breast): 2.21 µM | TGI (MCF7 breast): 12.4 µM | GI50 (BT-549 breast): 2.52 µM | TGI (BT-549 breast): 9.29 µM | GI50 (HS 578T breast): 10.3 µM | TGI (HS 578T breast): > 50 µM

COc1ccccc1-n1cnc(N)c1C(=O)c1cc(OC)c(OC)c(OC)c1
GI50 (NCI/ADR-RES ovarian): 13.1 µM | TGI (NCI/ADR-RES ovarian): > 100 µM | GI50 (MCF7 breast): 2.49 µM | TGI (MCF7 breast): > 100 µM | GI50 (BT-549 breast): 3.55 µM | TGI (BT-549 breast): 66.2 µM | GI50 (HS 578T breast): 2.16 µM | TGI (HS 578T breast): 7.69 µM

CCOC(=O)C1(CC(=O)O)CCCC1=O (stereo not given)
TGI (NCI/ADR-RES ovarian): > 100 µM | TGI (MCF7 breast): > 100 µM | TGI (BT-549 breast): > 100 µM | TGI (HS 578T breast): > 100 µM

COc1ccc2[nH]c(Cl)c(/C=C3/C(=O)Nc4ccccc43)c2c1
GI50 (NCI/ADR-RES ovarian): 0.715 µM | TGI (NCI/ADR-RES ovarian): 3.38 µM | GI50 (MCF7 breast): 0.79 µM | TGI (MCF7 breast): > 38.5 µM | GI50 (BT-549 breast): 0.185 µM | TGI (BT-549 breast): 0.523 µM | GI50 (HS 578T breast): 0.837 µM | TGI (HS 578T breast): 4.31 µM

NC(N)=NN=c1c(=O)c2ccccc2c1=O
GI50 (NCI/ADR-RES ovarian): 10.4 µM | TGI (NCI/ADR-RES ovarian): 31.7 µM | GI50 (MCF7 breast): 8.89 µM | TGI (MCF7 breast): 27.9 µM | GI50 (BT-549 breast): 15.7 µM | TGI (BT-549 breast): 29.2 µM | GI50 (HS 578T breast): 10.1 µM | TGI (HS 578T breast): > 100 µM

O=S(=O)(C1=CC(S(=O)(=O)c2ccccc2)COC1)c1ccccc1 (stereo not given)
TGI (DLD-1 colon): > 100 µM | TGI (DMS 114 small cell lung): > 100 µM | TGI (DMS 273 small cell lung): > 100 µM | TGI (M19-MEL melanoma): > 100 µM | TGI (LXFL 529 NSCLC): > 100 µM

O=C(COc1ccc(/C=C2\Oc3ccc4ccccc4c3C2=O)cc1)c1ccc([N+](=O)[O-])cc1
GI50 (NCI/ADR-RES ovarian): 21.8 µM | TGI (NCI/ADR-RES ovarian): 82.1 µM | GI50 (MCF7 breast): 1.71 µM | TGI (MCF7 breast): 20.3 µM | GI50 (BT-549 breast): 11.1 µM | TGI (BT-549 breast): 26.4 µM | GI50 (HS 578T breast): 18.5 µM | TGI (HS 578T breast): 57 µM

O=C1NC(=O)C(C(=O)C(=O)Nc2cc(Cl)ccc2Cl)C(=O)N1
TGI (DLD-1 colon): > 100 µM | TGI (DMS 114 small cell lung): > 100 µM | TGI (M19-MEL melanoma): > 100 µM | TGI (LXFL 529 NSCLC): > 100 µM

O=C(Nc1ccc(OS(=O)(=O)c2ccc(F)cc2)cc1)C12CC3CC(CC(C3)C1)C2
GI50 (NCI/ADR-RES ovarian): 3.15 µM | TGI (NCI/ADR-RES ovarian): > 100 µM | GI50 (MCF7 breast): 0.641 µM | TGI (MCF7 breast): > 100 µM | GI50 (BT-549 breast): 4.37 µM | TGI (BT-549 breast): 75.8 µM | GI50 (HS 578T breast): 5.9 µM | TGI (HS 578T breast): > 53.2 µM

O=c1cc(-c2ccc(Cl)cc2)[nH]c2ccccc12
GI50 (NCI/ADR-RES ovarian): 27.1 µM | TGI (NCI/ADR-RES ovarian): > 100 µM | GI50 (MCF7 breast): 41.3 µM | TGI (MCF7 breast): > 100 µM | GI50 (BT-549 breast): 29.4 µM | TGI (BT-549 breast): > 100 µM | GI50 (HS 578T breast): 28.9 µM | TGI (HS 578T breast): > 100 µM

O/N=C1/CCCC/C1=C/C=C/c1ccccc1
TGI (DLD-1 colon): > 100 µM | TGI (M19-MEL melanoma): 43.8 µM | TGI (HOP-18 NSCLC): 78.1 µM | TGI (LXFL 529 NSCLC): > 100 µM

C/C=C1/CN2CCC34C(=C(C(=O)OC)C1CC23)Nc1ccc(O)cc14 (stereo not given)
TGI (NCI/ADR-RES ovarian): > 100 µM | TGI (MCF7 breast): > 100 µM | TGI (BT-549 breast): > 100 µM | TGI (HS 578T breast): > 100 µM

Cc1cc(S(=O)(=O)/N=C(\N)Nc2cccc(O)c2)c(SCc2ccccc2)cc1Cl
GI50 (NCI/ADR-RES ovarian): 26.5 µM | TGI (NCI/ADR-RES ovarian): 70.2 µM | GI50 (MCF7 breast): 11.5 µM | TGI (MCF7 breast): 78.9 µM | GI50 (BT-549 breast): 19 µM | TGI (BT-549 breast): 39.7 µM | GI50 (HS 578T breast): 24.4 µM | TGI (HS 578T breast): 82.9 µM

c1ccc2c(c1)[nH]c1cnc3c4ncccc4[nH]c3c12
TGI (DLD-1 colon): > 100 µM | TGI (DMS 114 small cell lung): > 100 µM | TGI (DMS 273 small cell lung): > 100 µM | TGI (M19-MEL melanoma): > 100 µM | TGI (LXFL 529 NSCLC): > 100 µM

CN(C)c1ccc(C(=S)c2ccc(N(C)C)cc2)cc1
GI50 (NCI/ADR-RES ovarian): 2.4 µM | TGI (NCI/ADR-RES ovarian): 7.66 µM | GI50 (MCF7 breast): 3.92 µM | TGI (MCF7 breast): > 100 µM | GI50 (BT-549 breast): 6.76 µM | TGI (BT-549 breast): 90.1 µM | GI50 (HS 578T breast): 3.84 µM | TGI (HS 578T breast): > 100 µM

CCOC(=O)/C(=C/CC/C(C)=C/CC/C(C)=C/CCc1ccoc1)CC(=O)N1CCCCC1
GI50 (NCI/ADR-RES ovarian): 3.88 µM | TGI (NCI/ADR-RES ovarian): 23.7 µM | GI50 (MCF7 breast): 2.11 µM | TGI (MCF7 breast): 5.92 µM | GI50 (BT-549 breast): 4.03 µM | TGI (BT-549 breast): 17.2 µM | GI50 (HS 578T breast): 5.07 µM | TGI (HS 578T breast): 35.2 µM
